This is an account of results in patent publication US20080038321A1, “PROPHYLACTIC/THERAPEUTIC COMPOSITIONS FOR LIVER DISEASES” (Ajinomoto Co., Inc., priority 2004, published 2008).

Test [1] relates to CPT-1. As to the kind of experiment: Liver gene expression in high-fat diet GK rats after 6-week administration (quantitative PCR): CPT-1. The class given is in vivo, rat. From the text:
The mRNA levels are expressed while defining the level in the SD group as 1.00. <Primer Sequence>

For test [2], the system named is TRB3. The test can be described thus: TRB3 mRNA in Fao cells with L-Asp, L-Ala or both (quantitative PCR). The class given is cell-based, rat. The note with it: 3 h, L-Asp 0.05 mM, L-Ala 0.03 mM or both. How it is done: (§1) Whether the suppressive effect of L-Asp on TRB3 expression in rat hepatocyte-derived Fao cells is increased by adding L-Ala as another amino acid was studied. Whether the expression of HNF-4α is increased was also studied. Fao cells were inoculated on a 24-well plate to an amount of 2×10^5 cells/well, and the cells were cultivated in a 10% fetal bovine serum-containing RPMI 1640 medium (supplied from Nacalai Tesque, Inc.; Code No. 30264-85) at 37° C. in an atmosphere of 5% CO2 overnight. On the following day, the medium was replaced with one of a 10% fetal bovine serum-containing RPMI medium from which all amino acids had been removed (minus amino acid medium; Table 1) and media corresponding to the minus amino acid medium, except with L-Asp (concentration: 0.05 mM), L-Ala (concentration: 0.03 mM), or both added, and the cells were further cultivated at 37° C. in 2.5% CO2 atmosphere for three hours. RNAs were extracted from the cultured cells, and the TRB3 mRNA levels and the HNF-4α mRNA levels were determined through quantitative polymerase chain reaction (PCR) (Table 10).

Test [3] deals with HNF-4α. As to the kind of experiment: HNF-4α mRNA in Fao cells with L-Asp, L-Ala or both (quantitative PCR). The note with it: 3 h, L-Asp 0.05 mM, L-Ala 0.03 mM or both. The class given is cell-based, rat. Here is the method: as §1

For the molecule `N[C@@H](CC(=O)O)C(=O)O` [L-Asp, L-aspartic acid], in test [1] (HFD + Asp, 6-week administration, HFD = 1.00 in table, n = 6, mean), the “CPT-1 mRNA level in liver” value is 1.20. The CPT-1 gene expression in test [1] (L-Asp administration, 6 weeks, HFD) came out at 1.20 time. Besides, in test [2] (minus amino acid medium = 1.00), the “TRB3 mRNA level” value came out at 0.54. Moreover, in test [2] (of minus amino acid medium), the “expression level of TRB3 mRNA” value amounted to 54%. Further, the “expression level of HNF-4α mRNA” value in test [3] is listed as 1.3 time. The “HNF4α mRNA level” value in test [3] (minus amino acid medium = 1.00) is 1.30.
